Common to all, as to assay type: cell-based
Assay [1] addresses T1, LPA/S1P GPCR of interest (Homo sapiens, UniProt Q92633).
T1 construct: host or cells: CHO
The assay can be described thus: Beta-Arrestin based assay (PathHunter). The gist of the method:
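EA Parental CHO cells (DiscoverX) were transfected with FuGENE (Roche) using CMV promoter-driven DNA constructs encoding the LPA/S1P GPCR of interest fused to a ProLink tag. Beta-arrestin recruitment in agonist mode was assessed 24-48 hrs later with PathHunter kits. Tests ran in quadruplicate in white 384 well plates, and end point luminescence was fit to a 4 parameter logistic function.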

Assay [2] has as its target T2, LPA1 (Homo sapiens, UniProt Q92633). Description: LPA1 Migration Assay (Oris). Also noted: host or cells: primary fibroblasts (lung, dermal), HFL-1, 3T3 and CHO cells expressing LPA1R. To be noted: read-out: Cell Migration EC50. In a few lines:
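Oris exclusion-zone migration of LPA1R-expressing cells (primary lung/dermal fibroblasts, HFL-1, 3T3, CHO), Cell Tracker Green-loaded and serum-starved 12-24 h, toward LPA or serum. Fixed cells in the detection zone were counted by high-content imaging, and cell number vs. concentration was fitted to a 4-parameter logistic.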

In assay [3] the target is T2, LPA1. The assay can be described thus: Ca Flux LPA1 assay. Details: the full-length cDNA for human LPA1 is obtained by PCR of the reverse transcription reaction; expressed in transfected cells.

Among the data in US20140213538A1, “LYSOPHOSPHATIDIC ACID RECEPTOR ANTAGONISTS” (InterMune, Inc., priority 2013, published 2014) are EC50 and IC50 values, retold here.

Structures are written as SMILES. A value given as a limit tells only on which side of the number the result lay.

In general, IC50 refers to the midpoint of a concentration-inhibition curve.

T2 sequence (Q92633 whole entry): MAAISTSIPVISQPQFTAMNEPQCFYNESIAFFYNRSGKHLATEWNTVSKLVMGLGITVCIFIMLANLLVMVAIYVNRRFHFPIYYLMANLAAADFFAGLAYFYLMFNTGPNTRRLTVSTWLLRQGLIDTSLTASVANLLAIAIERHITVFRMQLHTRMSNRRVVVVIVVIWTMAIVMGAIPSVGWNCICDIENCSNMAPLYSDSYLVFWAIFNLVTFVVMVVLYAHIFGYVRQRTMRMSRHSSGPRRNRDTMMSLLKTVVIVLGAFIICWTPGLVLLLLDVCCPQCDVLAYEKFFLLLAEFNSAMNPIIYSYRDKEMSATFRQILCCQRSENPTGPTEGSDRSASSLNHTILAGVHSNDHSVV
T1 sequence (Q92633 whole entry): as above

With `C[C@@H](OC(=O)Nc1c(C#Cc2ccc(Oc3ccccc3C(=O)O)cc2)cnn1C)c1ccccc1` [IT301], the EC50 is less than 50 nM in assay [1] and 50 to 500 nM in assay [2]. The IC50 in assay [3] is less than 50 nM.
For `C[C@@H](OC(=O)Nc1c(-c2cc3sc(C#CC4(C(=O)O)CC4)cc3s2)cnn1C)c1ccccc1` [IT126], the EC50 in assay [1] is less than 50 nM; in assay [2], 50 to 500 nM. This compound also had an IC50 in assay [3] of less than 50 nM.
Take `Cc1noc(-c2ccc(-c3ccc(C4(C(=O)O)CC(F)(F)C4)cc3)cc2)c1NC(=O)O[C@H](C)c1ccccc1` [IT136]: the values for the EC50 in assay [1] and in assay [2] were less than 50 nM and 50 to 500 nM, respectively. In addition, the IC50 in assay [3] lay in the range of 50 to 500 nM.
For the compound `Cc1c(C2(C(=O)O)CC2)sc2cc(C#Cc3cnn(C)c3NC(=O)O[C@H](C)c3ccccc3)sc12` [IT107], the EC50 in assay [1] is less than 50 nM; in assay [2], 50 to 500 nM. The compound also gave an IC50 in assay [3] of less than 50 nM.
For the compound `CCn1ncc(-c2ccc(-c3cc(F)c(Oc4ncccc4C(=O)O)c(F)c3)cc2)c1NC(=O)O[C@H](C)c1ccccc1` [IT489], the EC50 in assay [1] and in assay [2] was less than 50 nM in each case. The IC50 in assay [3] lay within 50 to 500 nM.
Regarding `C[C@@H](OC(=O)Nc1c(-c2ccc(-c3cc(F)c(Oc4ncccc4C(=O)O)c(F)c3)cc2)cnn1C)c1ccccc1` [IT308], the EC50 in assay [1] and in assay [2] was less than 50 nM throughout. Also, the IC50 in assay [3] was 50 to 500 nM.
`Cc1onc(-c2cc(F)c(-c3cc4sc(C5(C(=O)O)CC5)cc4s3)cc2F)c1NC(=O)O[C@H](C)c1ccccc1` [IT255]: the EC50 was less than 50 nM in assay [1] and 50 to 500 nM in assay [2]. Moreover, the IC50 in assay [3] is 50 to 500 nM.
Regarding `Cc1nsc(-c2ccc(-c3cc(F)c(Oc4ncccc4C(=O)O)c(F)c3)cc2)c1NC(=O)O[C@H](C)c1ccccc1` [IT451], the EC50 in assay [1] and in assay [2] was less than 50 nM each time. In assay [3], this compound registered an IC50 of 50 to 500 nM.
As for `Cn1ncc(C#Cc2cc3sc(C4(C(=O)O)CC4)cc3s2)c1NC(=O)O[C@@H](c1ccccc1)C(F)(F)F` [IT114], the EC50 in assay [1] and in assay [2] was less than 50 nM each time. Moreover, the IC50 in assay [3] fell in the range of 50 to 500 nM.
On to `C[C@@H](OC(=O)Nc1ccncc1C#Cc1cc2sc(C3(C(=O)O)CC3)cc2s1)c1ccccc1` [IT106], for which the EC50 in assay [1] was 50 to 500 nM; in assay [2], greater than 500 nM. For the same compound, in assay [3], the concentration for half-maximal inhibition (IC50) is less than 50 nM.
On the same counts, the results for `COC(=O)C1(c2cc3sc(C#Cc4cnn(C)c4NC(=O)O[C@H](C)c4ccccc4)cc3s2)CC1` [IT479] are less than 50 nM, greater than 500 nM and 50 to 500 nM.
On to `Cc1noc(-c2ccc(-c3ccc(S(C)(=O)=O)cc3)cc2)c1NC(=O)O[C@H](C)c1ccccc1` [IT124], for which the results for the EC50 in assay [1] and in assay [2] were greater than 500 nM and 50 to 500 nM, respectively. Further, the IC50 in assay [3] was greater than 500 nM.
As to `Cc1noc(-c2ccc(-c3cc(F)c(Oc4ccccc4C(=O)O)c(F)c3)cc2)c1NC(=O)O[C@H](C)c1ccccc1Cl` [IT449], the EC50 in assay [1] and in assay [2] was less than 50 nM in each case. The same compound returned an IC50 in assay [3] greater than 500 nM.
Regarding `Cc1noc(-c2ccc(-c3ccc(OC(F)(F)C(=O)O)cc3)cc2)c1NC(=O)O[C@H](C)c1ccccc1` [IT228], the figures for the EC50 in assay [1] and in assay [2] were less than 50 nM and 50 to 500 nM, respectively. For the same compound, the IC50 in assay [3] was 50 to 500 nM.
Turning to `Cc1noc(-c2ccc(-c3ccc(Oc4ccccc4C(=O)O)cc3)cc2)c1NC(=O)O[C@H](C)c1ccccc1` [IT155], the EC50 in assay [1] and in assay [2] was less than 50 nM each time. In assay [3], the IC50 was 50 to 500 nM.
For `C[C@@H](OC(=O)Nc1c(-c2ccc(-c3ccc(Oc4ccccc4C(=O)O)cc3)cc2)cnn1C)c1ccccc1` [IT198], the EC50 in assay [1] is less than 50 nM; in assay [2], 50 to 500 nM. The IC50 in assay [3] was less than 50 nM.
`Cc1noc(-c2ccc(-c3ccc(Oc4c(F)cccc4C(=O)O)cc3)cc2)c1NC(=O)O[C@H](C)c1ccccc1` [IT375]: the values for the EC50 in assay [1] and in assay [2] were less than 50 nM and 50 to 500 nM, respectively. The compound also gave an IC50 in assay [3] of 50 to 500 nM.
As for `Cc1noc(-c2ccc(-c3ccc(OC(C)(C)C(=O)O)cc3)cc2)c1NC(=O)O[C@H](C)c1ccccc1` [IT226], the EC50 in assay [1] and in assay [2] was less than 50 nM throughout. In addition, the IC50 in assay [3] is less than 50 nM.
In the case of `Cc1noc(-c2ccc(-c3ccc(Oc4c(C(=O)O)nn(C)c4C)cc3)cc2)c1NC(=O)O[C@H](C)c1ccccc1` [IT484], the EC50 was less than 50 nM in assay [1] and 50 to 500 nM in assay [2]. Besides, the IC50 in assay [3] was less than 50 nM.
On to `C[C@@H](OC(=O)Nc1c(-c2ccc(-c3ccc(Oc4ccccc4C(=O)O)c(F)c3)cc2)cnn1C)c1ccccc1` [IT446], for which the EC50 in assay [1] and in assay [2] was less than 50 nM each time. This compound registered an IC50 in assay [3] of less than 50 nM.
In the case of `Cc1noc(-c2ccc(-c3ccc(C4(C(=O)O)CC4(F)F)cc3)cc2)c1NC(=O)O[C@H](C)c1ccccc1` (stereo partly drawn) [IT172], the EC50 in assay [1] and in assay [2] was less than 50 nM each time. Moreover, in assay [3], the IC50 lay within 50 to 500 nM.
On to `Cc1noc(-c2ccc(-c3ccc(C(F)(F)C(=O)O)cc3)cc2)c1NC(=O)O[C@H](C)c1ccccc1` [IT123], for which the EC50 in assay [1] was less than 50 nM; in assay [2] it was 50 to 500 nM. The compound also registered an IC50 in assay [3] of 50 to 500 nM.
Regarding `Cc1noc(-c2ccc(-c3ccc(Oc4cccnc4C(=O)O)cc3)cc2)c1NC(=O)O[C@H](C)c1ccccc1` [IT229], the EC50 in assay [1] is less than 50 nM; in assay [2], 50 to 500 nM. This compound also returned an IC50 in assay [3] of 50 to 500 nM.
As for `C[C@@H](OC(=O)Nc1c(-c2cc3sc(-c4cc(F)c(C5(C(=O)O)CC5)c(F)c4)cc3s2)cnn1C)c1ccccc1` [IT261], the EC50 in assay [1] was less than 50 nM; in assay [2] it was 50 to 500 nM. The compound also yielded an IC50 in assay [3] greater than 500 nM.
With `Cc1nsc(-c2cc3sc(-c4ccc(C5(C(=O)O)CC5)cc4)cc3s2)c1NC(=O)O[C@H](C)c1ccccc1` [IT120], the EC50 in assay [1] was less than 50 nM; in assay [2] it was 50 to 500 nM. In addition, the IC50 in assay [3] was greater than 500 nM.
Taken in the same sequence, the figures for `C[C@@H](OC(=O)Nc1c(-c2cc3sc(-c4cc(F)c(C5(C(=O)O)CC5)c(F)c4)cc3s2)nnn1C)c1ccccc1` [IT262] were less than 50 nM, 50 to 500 nM and 50 to 500 nM.
For `Cc1noc(-c2ccc(-c3ccc(Oc4ncccc4C(=O)O)cc3)cc2)c1NC(=O)O[C@H](C)c1ccccc1` [IT199], the EC50 in assay [1] and in assay [2] was less than 50 nM in each case. Moreover, the IC50 in assay [3] is less than 50 nM.
